Holding throughout (type): cell-based
One experiment addresses T1, mouse TLR7 (Mus musculus, UniProt P58681).
T1 construct: host or cells: HEK293 cells (ATCC, CRL-1573)
T1 sequence (P58681 27-1050): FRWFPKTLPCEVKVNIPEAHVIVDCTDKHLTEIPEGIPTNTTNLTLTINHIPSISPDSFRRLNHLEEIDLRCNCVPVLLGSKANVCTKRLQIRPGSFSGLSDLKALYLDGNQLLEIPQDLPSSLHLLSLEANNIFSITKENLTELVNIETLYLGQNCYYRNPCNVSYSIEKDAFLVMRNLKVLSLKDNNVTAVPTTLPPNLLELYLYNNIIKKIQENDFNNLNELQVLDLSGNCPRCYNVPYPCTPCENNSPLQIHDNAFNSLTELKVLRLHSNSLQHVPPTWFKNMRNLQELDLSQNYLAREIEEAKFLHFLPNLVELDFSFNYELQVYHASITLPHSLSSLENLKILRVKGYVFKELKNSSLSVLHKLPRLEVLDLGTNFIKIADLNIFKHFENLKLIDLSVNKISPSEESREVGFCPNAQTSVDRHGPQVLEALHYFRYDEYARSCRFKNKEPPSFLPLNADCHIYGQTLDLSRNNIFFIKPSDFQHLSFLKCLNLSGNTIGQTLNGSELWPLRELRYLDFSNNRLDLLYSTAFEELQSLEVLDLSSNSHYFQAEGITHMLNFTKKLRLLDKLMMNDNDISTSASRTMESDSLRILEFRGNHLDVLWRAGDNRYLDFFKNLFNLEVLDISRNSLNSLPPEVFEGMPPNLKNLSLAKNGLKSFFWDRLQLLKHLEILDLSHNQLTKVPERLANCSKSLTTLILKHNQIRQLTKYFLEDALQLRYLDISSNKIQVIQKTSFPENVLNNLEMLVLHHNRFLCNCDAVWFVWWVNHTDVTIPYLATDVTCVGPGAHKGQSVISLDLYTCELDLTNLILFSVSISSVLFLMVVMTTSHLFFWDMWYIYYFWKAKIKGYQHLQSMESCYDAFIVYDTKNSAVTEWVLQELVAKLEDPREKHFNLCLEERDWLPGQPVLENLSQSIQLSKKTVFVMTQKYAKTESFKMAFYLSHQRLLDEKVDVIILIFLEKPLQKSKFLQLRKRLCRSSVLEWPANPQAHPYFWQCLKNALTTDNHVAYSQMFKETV
Description: TLR signaling, NF-kB luciferase reporter in transfected HEK293 cells. As to conditions: HEK293 transfected with mTLR7, NF-kB luciferase; FIG. 1. The protocol:
(§1) HEK293 cells (ATCC, CRL-1573) are seeded in a T75 flask at 3×10^6 in 20 ml of DMEM supplemented with 0.1 mM nonessential amino acid, 1 mM sodium pyruvate, 2 mM L-glutamine, penicillin-streptomycin, and 10% FCS. After overnight culturing, the cells are transfected with 1) pNFkB-TA-luciferase reporter (0.4 ug) (BD clontech, Palo Alto, Calif.), and with 2) with pGL4.74 (0.01 ug) that carries a TK promoter, not responsive to NF-kB stimulation, and carries a Renilla luciferase gene, used as an internal control (Promega, Wis.), and 3), separately with a following TLR construct (10 ug): human TLR (hTLR) 7, hTLR8, mouse TLR7 (mTLR7) puno constructs (Invivogene, CA), using Fugene 6 transfection reagent (Roche). The transfected cells after 24 hours transfection are collected and seeded in a 96-well and flat-bottom plate (1×10^4 cell/well) plate, and stimulated with the test compounds at the following concentrations: 30, 10, 3, 1, 0.3, 0.1, 0.03 uM. After overnight compound stimulation, the cells are assayed for expression of fly and renilla luciferases using Dual-Luciferase Reporter Assay System (Promega, WI). NF-kb activation is directly proportional to relative fly luciferase units, which is measured against the internal control renilla luciferase units.
In general terms: A reporter such as luciferase makes a cellular process visible.

The next experiment addresses T2, human TLR7 (Homo sapiens, UniProt Q9NYK1).
T2 construct: host or cells: HEK293 cells (ATCC, CRL-1573)
T2 sequence (Q9NYK1 27-1049): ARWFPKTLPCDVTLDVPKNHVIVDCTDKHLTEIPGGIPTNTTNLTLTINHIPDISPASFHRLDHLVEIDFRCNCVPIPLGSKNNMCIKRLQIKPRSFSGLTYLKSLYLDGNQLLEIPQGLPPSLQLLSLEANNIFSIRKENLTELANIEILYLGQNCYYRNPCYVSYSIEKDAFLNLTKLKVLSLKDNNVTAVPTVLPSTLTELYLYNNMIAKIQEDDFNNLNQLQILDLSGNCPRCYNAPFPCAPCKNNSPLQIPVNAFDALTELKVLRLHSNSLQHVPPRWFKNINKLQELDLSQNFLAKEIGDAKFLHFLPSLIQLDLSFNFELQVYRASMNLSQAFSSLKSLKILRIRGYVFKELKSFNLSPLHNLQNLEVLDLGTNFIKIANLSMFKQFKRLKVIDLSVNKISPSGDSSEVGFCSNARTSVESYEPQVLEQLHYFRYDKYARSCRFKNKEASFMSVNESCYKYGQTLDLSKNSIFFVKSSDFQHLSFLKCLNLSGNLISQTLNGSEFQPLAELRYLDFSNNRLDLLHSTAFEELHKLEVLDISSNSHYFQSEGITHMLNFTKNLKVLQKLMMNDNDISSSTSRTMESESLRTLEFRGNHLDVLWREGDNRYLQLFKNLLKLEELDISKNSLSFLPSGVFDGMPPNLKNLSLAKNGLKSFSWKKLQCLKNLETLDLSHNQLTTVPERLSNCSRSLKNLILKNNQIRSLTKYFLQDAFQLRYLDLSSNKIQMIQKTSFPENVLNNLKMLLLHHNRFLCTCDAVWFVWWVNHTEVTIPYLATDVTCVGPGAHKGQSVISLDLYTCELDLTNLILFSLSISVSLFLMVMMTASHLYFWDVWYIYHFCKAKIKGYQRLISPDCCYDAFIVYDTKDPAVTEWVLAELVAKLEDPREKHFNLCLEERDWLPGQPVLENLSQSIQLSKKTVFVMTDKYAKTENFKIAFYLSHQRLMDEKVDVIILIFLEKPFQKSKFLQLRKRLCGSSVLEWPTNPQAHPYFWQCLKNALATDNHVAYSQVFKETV
The description is as above. As to conditions: HEK293 transfected with hTLR7, NF-kB luciferase; FIG. 1. The protocol: as §1

Another experiment has as its target T3, human TLR8 (Homo sapiens, UniProt Q9NR97).
T3 construct: host or cells: HEK293 cells (ATCC, CRL-1573)
T3 sequence (Q9NR97 27-1041): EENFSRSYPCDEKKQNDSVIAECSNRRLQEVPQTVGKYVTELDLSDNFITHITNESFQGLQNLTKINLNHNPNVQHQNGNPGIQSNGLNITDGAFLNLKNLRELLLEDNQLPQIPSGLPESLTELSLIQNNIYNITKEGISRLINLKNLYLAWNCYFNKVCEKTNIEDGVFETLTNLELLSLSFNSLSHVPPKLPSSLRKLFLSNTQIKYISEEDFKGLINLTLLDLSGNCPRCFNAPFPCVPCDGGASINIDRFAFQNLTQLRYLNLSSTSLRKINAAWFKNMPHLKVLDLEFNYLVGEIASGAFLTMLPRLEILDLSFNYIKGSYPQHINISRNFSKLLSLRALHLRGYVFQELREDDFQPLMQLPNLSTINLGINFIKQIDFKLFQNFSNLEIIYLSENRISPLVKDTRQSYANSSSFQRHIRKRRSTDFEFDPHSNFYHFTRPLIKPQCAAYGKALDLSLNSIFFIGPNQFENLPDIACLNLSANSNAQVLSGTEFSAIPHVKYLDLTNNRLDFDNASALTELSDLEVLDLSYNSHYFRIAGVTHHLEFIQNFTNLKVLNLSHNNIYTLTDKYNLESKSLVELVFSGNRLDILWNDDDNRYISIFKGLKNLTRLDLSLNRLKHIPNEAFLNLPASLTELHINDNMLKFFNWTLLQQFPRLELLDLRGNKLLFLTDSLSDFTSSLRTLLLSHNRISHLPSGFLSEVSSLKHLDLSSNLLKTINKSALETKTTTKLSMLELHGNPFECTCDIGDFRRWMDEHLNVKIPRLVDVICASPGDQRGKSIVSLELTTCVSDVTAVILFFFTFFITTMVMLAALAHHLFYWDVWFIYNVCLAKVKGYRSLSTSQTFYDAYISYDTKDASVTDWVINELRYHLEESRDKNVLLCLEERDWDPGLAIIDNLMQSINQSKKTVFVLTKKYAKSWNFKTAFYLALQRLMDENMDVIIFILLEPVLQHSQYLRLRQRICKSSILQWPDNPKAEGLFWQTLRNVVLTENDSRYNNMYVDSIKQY
The experiment is described as above. As to conditions: HEK293 transfected with hTLR8, NF-kB luciferase; FIG. 1. On the procedure: as §1

The subject of the next experiment is IL-6. Nature of the experiment: Compound stimulation and multi-cytokine measurement (IL-6 production). Conditions: cytokine induction; cell type not stated at the result; read-out: EC50 value with respect to agonism of IL-6. The protocol:
Human PBMC (hPBMC) (at 1 million cells/ml) or mouse spleen cells (at 5 million cells/ml) or human monocytic THP-1 cells (at 1 million cells/ml) were mixed with tested compounds such as imidazoquinoxalines at titrated compound concentrations in the complete RPMI medium. After the cell cultures were incubated for 24 hours at 37° C., 5% CO2, the culture supernatant was collected and assayed for the secreted cytokines in the presence of the compounds. Human or mouse Beadlyte multi-cytokine flex kits (Upstate, Lake Placid, N.Y.) were used to measure the amount of the following cytokines: TNF-α and IL-6 according to the manufacturers instructions.
Due to the agonist nature of the compounds tested, compound ranking is based on potency in cell-based screens for cytokine induction. Briefly, the EC50 of each compound for a given cytokine is calculated relative to a reference composition (i.e. LPS or other potent immune stimulator). This value is then used as the divisor of the maximum level of cytokine produced (pg/ml) in the assay. Five parameter curve fitting of cytokine dose response curves to different SMIPs for the indicated cell populations is used to calculate EC50. Rank-scoring of SMIP potency is calculated by dividing the maximum concentration of cytokine produced by the relative EC50 established for each compound indicated.

The subject of the next experiment is TNF-α. Nature of the experiment: Compound stimulation and multi-cytokine measurement (TNF-α production). As to conditions: cytokine induction; FIG. 2: human PBMC TNF-α production; read-out: EC50 value with respect to agonism of TNF-α. The protocol:
Human blood from one or multiple human donors were collected into the BD Vacutainer™ CPT tube with sodium citrate (BD, Franklin Lakes, N.J.), and spun for 20 minutes at 1600 g. After centrifugation, mononuclear cells in the top layer in the tubes were collected and then washed three times with PBS buffer. The washed cells were then reconstituted at a required cell concentration in complete RPMI containing 10% FBS plus 100 units/ml penicillin and 100 ug/ml streptomycin.
Human PBMC (hPBMC) (at 1 million cells/ml) or mouse spleen cells (at 5 million cells/ml) or human monocytic THP-1 cells (at 1 million cells/ml) were mixed with tested compounds such as imidazoquinoxalines at titrated compound concentrations in the complete RPMI medium. After the cell cultures were incubated for 24 hours at 37° C., 5% CO2, the culture supernatant was collected and assayed for the secreted cytokines in the presence of the compounds. […]
Due to the agonist nature of the compounds tested, compound ranking is based on potency in cell-based screens for cytokine induction. Briefly, the EC50 of each compound for a given cytokine is calculated relative to a reference composition (i.e. LPS or other potent immune stimulator). […] Rank-scoring of SMIP potency is calculated by dividing the maximum concentration of cytokine produced by the relative EC50 established for each compound indicated.

The term EC50 denotes the concentration that produces a half-maximal response.

Turning to `CC(C)Cc1cn2c(n1)c(N)nc1ccccc12` [Example 3, 2-isobutylimidazo[1,2-a]quinoxalin-4-amine], on mouse TLR7, the “reactivity for mouse TLR7” value is “slightly more reactivity for mouse TLR7 than did the compound of Example 4”. Moreover, the “stimulation of human TLR7” value on human TLR7 is recorded as “activity for stimulation”. Further, the “stimulatory activity with human TLR8” value at human TLR8 is on record as “stimulatory activity”. Moreover, the EC50 in the experiment with IL-6 and in the experiment on TNF-α was under 15 µM throughout.

As for `CC(C)Cc1nc2c(N)nc3ccccc3n2c1CC(C)(C)O` [Example 4, 1-(4-amino-2-isobutylimidazo[1,2-a]quinoxalin-1-yl)-2-methylpropan-2-ol], the “stimulatory activity with human TLR8” value at human TLR8 is given as “little or no reactivity”. Also, the EC50 in the experiment with IL-6 and in the experiment with TNF-α was under 15 µM in each case.
